How the values were obtained:
[1] = test system: Beagle dogs; test: 28-day repeated dose oral toxicity study in dogs; assay type: in vivo, dog; conditions: for No observed adverse effect level (NOAEL): Beagle dogs male and female, 28-day oral
Protocol: The control animals were treated in the same manner with placebo gelatin capsules.
Pre-treatment: hematological, clinical chemistry and ECG investigations and opthalmoscopic examinations were performed.
During the treatment period: check of mortality and clinical observation were performed at least twice daily and weighing the non-consumed food was performed daily. The body weights of animals were measured once a week. At the end of the treatment, hematological laboratory and ECG investigations, opthalmoscopic examinations, gross necropsy, histopathological and histometrical examinations were performed.

[2] = 28-day repeated dose oral toxicokinetic study in rats; conditions: for Tmax: rat, in vivo, po
Protocol: A 28-day repeated dose oral toxicokinetic study of Compound I was performed in rats involving dose groups of 375 mg/kg, 750 mg/kg and 1500 mg/kg/day (equal to 233 mg/kg, 465 mg/kg and 930 mg/kg free base) (n=5 animals/sex/group). Blood samples were taken after the first and after the last doses to determine the kinetic parameters.

[3] = dog, 70-210 mg/kg/day oral, 28 days

[O-][n+]1cccc(/C(Cl)=N/OC[C@H](O)CN2CCCCC2)c1 [Compound I, N-[2-hydroxy-3-(1-piperidinyl)-propoxy]-pyridine-1-oxide-3-carboximidoyl chloride]
No observed adverse effect level (NOAEL) ([1]; by base): 43.4 mg/kg/day
No observed adverse effect level (NOAEL) ([1]; by citrate): 70 mg/kg/day
ECG and ophthalmologic alterations [1, 3]: did not cause ECG and opthalmologic alterations
mortality [1, 3]: No deaths occurred
Cmax ([2]; male rats, 750 mg/kg/day oral, Day 28): 20.41 µg/mL
Tmax ([2]; 375 mg/kg): 1 h
Tmax ([2]; 375 mg/kg/day): 0.5 h
Tmax ([2]; 750 mg/kg): 2 h
Tmax ([2]; 1500 mg/kg): 2 h

— patent US20080227813A1, “Pharmaceutical compositions and methods for treating diseases associated with neurodegeneration” (priority 2006, published 2008)
